Measurements taken from patent publication US4870097A, “Pharmaceutical use of derivatives of tryptophan” (priority 1984, dated 1989).

Assays:
[1] = tested on: tolerance induced by morphine; assay: Antagonism to the development of tolerance to repeated administration of morphine HCl (tail flick); type: in vivo, rats
Description: Several of the compounds of the invention were examined to determine any capacity to antagonise the development of tolerance induced by morphine. Groups of six male rats having a weight of about 200-250 were used.
At intervals of 24 hours from the first treatment (time 0), each animal (except for the control group treated with a physiological solution) received 3 mg/kg of morphine hydrochloride i.p. together with 3 mg/kg i.p. of the compounds indicated (with the exception of the group treated solely with morphine).
The determination of the threshold for the pain stimulus was effected at 15°, 30', 45' and 60' intervals from the treatment by the "tail flick" test.

[2] = tested on: analgesic activity of morphine; assay: Tail Flick Test: increase in the analgesic effect of morphine; type: in vivo, rats; conditions: for percentage variation in the latency of the pain sensation, 10' / percentage variation in the latency of the pain sensation, 20' / percentage variation in the latency of the pain sensation, 30' / percentage variation in the latency of the pain sensation, 45' / percentage variation in the latency of the pain sensation, 60' / percentage variation in the latency of the pain sensation, 90' / M(10'-90') average percentage variation: compound 10 mg/kg i.p. + morphine 2 mg/kg (row Morphine: alone); for percentage variation in the latency of the pain sensation, 10' / percentage variation in the latency of the pain sensation, 20' / percentage variation in the latency of the pain sensation, 30' / percentage variation in the latency of the pain sensation, 45' / percentage variation in the latency of the pain sensation, 60' / percentage variation in the latency of the pain sensation, 90': ± S.E.; for M(10'-90') average percentage variation: mean 10'-90'; for Potency ratio relative to morphine alone: rat, in vivo
Description: Increase in the analgesic effect of analgesic-narcotic drugs in rats in the Tail Flick Test
The method is that described by Harris et al. (J. Pharmacol. Exp. Ther. 143 (1964) 141-148).
Male rats are used which have a weight of about 150-200 g and which have not been fasting. A point is chosen on the tail and this is irradiated by a heat source (75° C.) and the time (in seconds) for which the animal remains without moving its tail is measured.
A maximum period of time under the heat source of 8 seconds is chosen after which the animal is, in any case, removed in order to avoid tissue damage. The measurement is effected before (controls) and after treatment with the drugs.
. The percentage variation is calculated for each individual animal by the following formula: [formula] The measurements are carried out 10, 20, 30, 45, 60 and 90 minutes after treatment with the analgesics.
The results obtained are given in Table 1 which records the groups treated and the doses administered, the
average percentage variations (calculated on groups of five animals) in […]

[3] = tested on: guinea pig gall bladder contracted with CCK-8; assay: Anti-CCK activity on guinea pig gall bladders in vitro; type: biochemical; conditions: CCK-8 10 ng/ml, concentration antagonising 50% of contracting effect
Description: A longitudinal strip of guinea pig gall bladder is placed in a bath of Krebs for isolated organs at a temperature of 32° C. and oxygenated continuously with an oxygen-CO2 mixture (95-5 V/V).
The […] contractions are detected by means of a force transducer and recorded.
The gall bladder is contracted with the use of a CCK-8 solution at a concentration of 10 ng/ml; the antagonistic activity of the compounds of the invention towards the contracting effect of the CCK is determined with the use of different concentrations, the ED50 value, that is the concentration of the compound in mcg/ml capable of antagonising 50% of the contracting effect of the CCK, being determined.
The results obtained are set out in the following table which gives the compounds tested and the ED50 values which are calculated by the method of regression on a test of at least three experiments for each compound studied.

[4] = tested on: analgesic activity of DALA; assay: Tail Flick test: increase in the analgesic activity of DALA (i.c.v.); type: in vivo, rats; conditions: b802: 0.001 g/kg
Description: In order to check one of the possible mechanisms for the action of the compounds of the invention, that is, their possible inhibition of the enzymatic degradation of endogenous enkephalins, the following experiment was carried out:
A cannula was implanted in the right lateral ventricle of male rats having a weight of 150-200 g (groups of five animals were used) in order to allow the intracerebroventricular (i.c.v.) administration of drugs according to the method of Noble et al (Life Science 6, (1970) 281-291).
The animals were subsequently treated (i.c.v.) with 3 μg of D-ala-methionine-enkephalinamide (DALA) immediately after an injection (i.c.v.) of the compounds under study at the doses given in Table 4. Analgesia was tested for by the Tail Flick method already mentioned, at the times

[5] = days 0-7, 3 mg/kg + morphine (row Morphine: alone)

| Compound | percentage variation in the latency of the pain sensation, 10' [2] | percentage variation in the latency of the pain sensation, 20' [2] | percentage variation in the latency of the pain sensation, 30' [2] | percentage variation in the latency of the pain sensation, 45' [2] | percentage variation in the latency of the pain sensation, 60' [2] | percentage variation in the latency of the pain sensation, 90' [2] | M(10'-90') average percentage variation [2] | Potency ratio relative to morphine alone [2] | Anti CCK-8 activity, ED50 [3] | also measured |
| --- | --- | --- | --- | --- | --- | --- | --- | --- | --- | --- |
| O=C(N[C@@H](Cc1c[nH]c2ccccc12)C(=O)O)OCc1ccc(F)cc1 [Compound 1, N-p-fluorocarbobenzoxy-L-tryptophan] | 37.6 ± 12.9% | 89.2 ± 7.3% | 96.4 ± 3.5% | 82.6 ± 12.5% | 87.2 ± 7.8% | 40.6 ± 17.7% | 72.3% | 2.43 | 59.9 µg/mL | percentage variation in the latency time, day 0 ([1]; day 0, 3 mg/kg i.p. + morphine HCl 3 mg/kg i.p. (row Morphine: alone)): 44.25%; percentage variation in the latency time, day 1 ([1]; day 1, 3 mg/kg i.p. + morphine HCl 3 mg/kg i.p. (row Morphine: alone)): 69.33%; percentage variation in the latency time, day 2 ([1]; day 2, 3 mg/kg i.p. + morphine HCl 3 mg/kg i.p. (row Morphine: alone)): 69.21%; percentage variation in the latency time, day 3 ([1]; day 3, 3 mg/kg i.p. + morphine HCl 3 mg/kg i.p. (row Morphine: alone)): 54.03%; percentage variation in the latency time, day 4 ([1]; day 4, 3 mg/kg i.p. + morphine HCl 3 mg/kg i.p. (row Morphine: alone)): 21.91%; percentage variation in the latency time, day 5 ([1]; day 5, 3 mg/kg i.p. + morphine HCl 3 mg/kg i.p. (row Morphine: alone)): 33.35%; percentage variation in the latency time, day 6 ([1]; day 6, 3 mg/kg i.p. + morphine HCl 3 mg/kg i.p. (row Morphine: alone)): 36.44%; percentage variation in the latency time, day 7 ([1]; day 7, 3 mg/kg i.p. + morphine HCl 3 mg/kg i.p. (row Morphine: alone)): 16.1%; Area subtended (1) [1, 5]: 342.6 Effect-Day; regression line % Effect versus Day [1, 5]: % Effect = - 5.97 Day + 63.96; Area 1 / Area Morphine ([1]; days 0-7, 3 mg/kg + morphine, ratio to morphine alone): 2.44 |
| CCCCCc1ccc(C(=O)N[C@@H](Cc2c[nH]c3ccccc23)C(=O)O)cc1 [Compound 25] | 32.9 ± 17.3% | 63.7 ± 19.1% | 97.5 ± 2.5% | 100.0 ± 0.0% | 100.0 ± 0.0% | 82.9 ± 17.1% | 79.5% | 2.67 | 103.8 µg/mL |  |
| CCCCCCCc1ccc(C(=O)N[C@@H](Cc2c[nH]c3ccccc23)C(=O)O)cc1 [Compound 27] | 73.8 ± 18.1% | 95.2 ± 4.7% | 86.6 ± 9.0% | 87.7 ± 12.3% | 83.8 ± 9.9% | 88.4 ± 8.5% | 85.9% | 2.88 | 148.5 µg/mL |  |
| CCCCCCCCCc1ccc(C(=O)N[C@@H](Cc2c[nH]c3ccccc23)C(=O)O)cc1 [Compound 28] | 79.5 ± 12.7% | 100.0 ± 0.0% | 98.0 ± 2.0% | 100.0 ± 0.0% | 82.2 ± 17.8% | 78.8 ± 11.4% | 89.7% | 3.01 | 18.9 µg/mL |  |
| Cc1ccc(C(=O)N[C@@H](Cc2c[nH]c3ccccc23)C(=O)O)cc1C [Compound 29] | 54.7 ± 14.1% | 62.6 ± 16.5% | 62.8 ± 17.5% | 65.9 ± 16.0% | 51.4 ± 12.7% | 52.5 ± 15.7% | 58.3% | 1.96 | IN (inactive up to 400 mcg/ml) |  |
| O=C(N[C@@H](Cc1c[nH]c2ccccc12)C(=O)O)c1ccc(C(F)(F)F)cc1 [Compound 30] | 9.8 ± 10.5% | 45.6 ± 16.1% | 69.3 ± 22.2% | 62.3 ± 21.9% | 54.8 ± 17.6% | 24.7 ± 15.5% | 43.6% | 1.46 | IN (inactive up to 400 mcg/ml) |  |
| N#Cc1ccc(C(=O)N[C@@H](Cc2c[nH]c3ccccc23)C(=O)O)cc1 [Compound 31] | 67.6 ± 16.1% | 66.3 ± 3.5% | 81.4 ± 14.7% | 73.4 ± 18.0% | 77.4 ± 10.3% | 21.3 ± 16.5% | 64.6% | 2.17 | IN (inactive up to 400 mcg/ml) |  |
| N#Cc1cccc(C(=O)N[C@@H](Cc2c[nH]c3ccccc23)C(=O)O)c1 [Compound 32] | 18.7 ± 6.7% | 60.7 ± 15.5% | 63.7 ± 16.3% | 63.7 ± 16.3% | 45.8 ± 16.1% | 22.8 ± 12.2% | 43.0% | 1.44 | IN (inactive up to 400 mcg/ml) |  |
| CCCN(CCC)C(=O)C(CCC(=O)O)NC(=O)c1ccccc1 (stereo not drawn) [proglumide, reference compound] |  |  |  |  |  |  |  |  |  | potentiating action on the analgesic effect of DALA (in words) [4]: highly significant |
